Assay results reported in US20050004044A1, “Use of orsaponin [3beta, 16beta, 17 alpha-trihydroxycholost-5-en-22-one 16-0-(2-0-4-methoxybenzoyl-beta-D-xylopyranosyl)-(1->3)-(2-0-acetyl-alpha-L-arabinopyranoside)] or OSW-1 and its derivatives for cancer therapeutics” (priority 2003, published 2005).

How the values were obtained:
[1] = tested on: HCT116 p53+/+ colon cancer cells; assay: Colony formation assay, HCT116 p53+/+; assay type: cell-based, human
Description: FIG. 6. Effect of OSW-1 on cell survival in human colon carcinoma cells. Human colon cancer cells with wild-type p53 (HCT116 p53+/+) and p53-null (HCT116 p53−/−) were treated with the indicated concentrations of OSW-1, and cell survival was measured by colony formation assay.
OSW-1 Inhibits Growth of Human Colon Cancer Cells. […] The HCT116 colon cancer cells with wild-type p53 (p53+/+) and p53-null (p53−/−) were treated with the various concentrations of orsaponin (OSW-1), and cell survival was measured by colony formation assay.

[2] = tested on: HL-60 cells; assay: MTT cell growth inhibition, HL-60; assay type: cell-based; conditions: Homo sapiens, HL-60, 72 hours
Description: FIG. 2. Effect of Orsaponin (OSW-1) on cell growth in two human cancer cell lines including a leukemia and a lymphoma cell line. HL-60 (leukemia) and Raji cells (lymphoma) in exponentially growing phase were treated with the indicated concentrations of OSW-1 for 72 hours. Cell growth inhibition was measured by MTT assay.
Cells and Cell Lines. Various cancer cell lines were used including the human leukemia cell lines HL-60 and ML-1 cells; human lymphoma cell line Raji; human pancreatic cancer cells AsPC-1; and human ovarian cancer cells SKOV3; human colon cancer cells HCT116; as well as isolated CLL cells from patients; and lymphocytes from normal donors. Cells were grown and maintained as per protocols known in the art using appropriate cell culture media and supplements.
1. MTT Assays. For these assays either cancer cell lines were used. Alternatively, mononuclear cells from peripheral blood samples of CLL patients or normal donors were separated by Ficoll Hipaque fractionation and resuspended in DMEM complete medium. […] After the indicated number of days (usually 3 days or 72 hours) of exposure to OSW-1, cell survival was assessed by the addition of the MTT dye to the wells. […] Survival of cells under orsaponin treatment was evaluated as a percentage of control cell growth. […]

[3] = tested on: C6F cells (HL-60 mutant with mitochondrial respiration defect); assay: Apoptosis and cell cycle, respiration-deficient C6F; assay type: cell-based, human; conditions: 0.5 nM, 16 and 24 h
Description: (§1) FIG. 9. Mitochondrial respiration plays an important role in the cytotoxic action of Orsaponin (OSW-1). The parental HL-60 line and its mutant with mitochondrial respiration defect, clone C6F, were incubated with 0.5 nM OSW-1 for the indicated times. Apoptosis and change in cell cycle distribution were assayed by flow cytometry analysis.
Two cancer cell lines and their mutant mitochondrial respiration deficient clones were analyzed for apoptosis and changes in cell-cycle following exposure to OSW-1. Thus, the parental HL-60 leukemia line and its mitochondrial respiration defective mutant C6F were incubated with 0.5 nM OSW-1 for 0, 8, 16 and 24 hours and apoptosis and change in cell cycle distribution were assayed by flow cytometry analysis. […] Thus, it is clear that the respiration defective cells are resistant to the effects of OSW-1. Consistent with these observations, apoptosis was also detected by DNA fragmentation assays performed at 24 and 32 hours after HL-60 cells are treated with OSW-1; DNA fragmentation was not observed in C6F cells even at 32 hours of drug incubation (data not shown).

[4] = tested on: human promyelocytic leukemia HL-60 cells; conditions: Mimaki et al., 1997; read-out: IC50, cytostatic activity against HL-60; cited from earlier work
[5] = tested on: AsPC-1/IκBα-ND cells; assay: MTT cell growth inhibition, AsPC-1 with NFκB inactivated; assay type: cell-based; conditions: Homo sapiens, ASPC1, 72 h
Description: FIG. 4. The anticancer activity of Orsaponin (OSW-1) is not affected by NFκB expression in pancreatic cancer cells. Human pancreatic cancer cells AsPC-1 with constitutive activation of NFκB or inactivation of NFκB by dominant negative IκBα (AsPC-1/IκBα-ND) were treated with the indicated concentrations of OSW-1 for 72 h. Cell growth inhibition was measured by MTT assay.
1. MTT Assays. For these assays either cancer cell lines were used. Alternatively, mononuclear cells from peripheral blood samples of CLL patients or normal donors were separated by Ficoll Hipaque fractionation and resuspended in DMEM complete medium. Malignant cells from various human cell lines (usually at 5×10^4 cells/ml) or mononuclear cells from peripheral blood of leukemia patients and healthy donors (1×10^6 cells/ml) were incubated in either αMEM or RPMI 1640 with or without various concentrations of OSW-1 in the range of 0-10 nM. Each experimental condition was done in triplicate. After the indicated number of days (usually 3 days or 72 hours) of exposure to OSW-1, cell survival was assessed by the addition of the MTT dye to the wells. […] Survival of cells under orsaponin treatment was evaluated as a percentage of control cell growth. […]
OSW-1 Inhibits Growth of Pancreatic Cancer Cells Irrespective of NFκB Expression. […] Cell growth inhibition was measured by MTT assay. […]

[6] = tested on: HL-60 cells; assay: Apoptosis and cell cycle (annexin V, DNA fragmentation, flow cytometry), HL-60; assay type: cell-based, human; conditions: HL-60, 0.5 nM
Description: FIGS. 1A-1B. Induction of apoptosis by Orsaponin (OSW-1) in human leukemia cells. HL-60 cells in exponentially growing phase were treated with 0.5 nM OSW-1 for the indicated times. Drug induced apoptosis was analyzed by the annexin V assay as shown in FIG. 1A and by the DNA fragmentation assay as shown in FIG. 1B. In FIG. 1A, the early and late stages of apoptotic cells appear in the low-right window and upper-right window, respectively.
as §1
2. Analysis of Apoptosis. Two methods were used to analyze apoptosis by assaying different events in the apoptotic pathways. Percentages of apoptotic cells induced by orsaponins of the invention were evaluated using flow cytometer. Different methods of staining cells for apoptosis were utilized to assess different aspects of apoptotic cascade.
(i) Annexin V Staining. Annexin V binds to cells that express phosphatidylserine on the outer layer of the cell membrane. […] Cells were analyzed on flow cytometer.
(ii) DNA Fragmentation Assay. […] The cell are then lysed in a solution containing 10 mM Tris-HCl, pH 7.5, 25 mM EDTA, 0.5% SDS, and […] protease K. After digestion and removal of the cellular protein from the cellular DNA, the isolated DNA is analyzed on a 1.8% agarose gel, and visualized by ethidium bromide staining. […]
Two cancer cell lines and their mutant mitochondrial respiration deficient clones were analyzed for apoptosis and changes in cell-cycle following exposure to OSW-1. […] Consistent with these observations, apoptosis was also detected by DNA fragmentation assays performed at 24 and 32 hours after HL-60 cells are treated with OSW-1; DNA fragmentation was not observed in C6F cells even at 32 hours of drug incubation (data not shown).

COc1ccc(C(=O)OC2C(OC3C(O)COC(O[C@H]4C[C@H]5[C@@H]6CC=C7C[C@@H](O)CC[C@]7(C)[C@H]6CC[C@]5(C)[C@@]4(O)[C@H](C)C(=O)CCC(C)C)C3OC(C)=O)OCC(O)C2O)cc1 (stereo partly drawn) [OSW-1, 3β, 16β, 17 α-trihydroxycholost-5-en-22-one 16-O-(2-O-4-methoxybenzoyl-β-D-xylopyranosyl)-(1->3)-(2-O-acetyl-α-L-arabinopyranoside)]
cell survival, colony formation [1]: effective in killing human colon cancer cells regardless of p53 expression status | IC50 [2]: < 0.5 nM | apoptosis [3]: does not result in significant apoptosis | IC50 [4]: 0.1 to 0.3 nM | IC50 [5]: ~0.3 nM | change in cell cycle distribution ([6]; 16 hours): significant reduction of G1 phase cells and an increase of cells in the G2/M phase region | apoptosis (subG1) ([6]; 24 h, flow cytometry): a substantial portion of the drug-treated HL-60 cells became apoptotic | time after incubation at which apoptosis occurred ([6]; annexin V and DNA fragmentation): 16 h
